# Publication PMC7934444, “A bifunctional enzyme belonging to cytochrome P450 family involved in the O-dealkylation and N-dealkoxymethylation toward chloroacetanilide herbicides in Rhodococcus sp. B2” (Microbial Cell Factories, 2021)
# Molecular target: T1, EthABDB2 (EthAB2 + EthBB2 + EthDB2) (Rhodococcus sp. B2, UniProt A0A8A6W4L4)
# T1 construct: gene ethB; 43 kDa (EthA), 44 kDa (EthB), 10 kDa (EthD); mixed in vitro; EthB has ten residue differences from EthB of strain T3-1; with Ferredoxin reductase EthA; EthD protein (10 kDa; unknown function, acts as ferredoxin)
# T1 sequence (A0A8A6W625 entry or part of it): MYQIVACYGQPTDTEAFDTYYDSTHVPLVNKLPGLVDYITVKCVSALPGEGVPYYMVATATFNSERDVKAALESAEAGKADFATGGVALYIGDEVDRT
# T1 sequence (A0A8A6W4L4 entry or part of it): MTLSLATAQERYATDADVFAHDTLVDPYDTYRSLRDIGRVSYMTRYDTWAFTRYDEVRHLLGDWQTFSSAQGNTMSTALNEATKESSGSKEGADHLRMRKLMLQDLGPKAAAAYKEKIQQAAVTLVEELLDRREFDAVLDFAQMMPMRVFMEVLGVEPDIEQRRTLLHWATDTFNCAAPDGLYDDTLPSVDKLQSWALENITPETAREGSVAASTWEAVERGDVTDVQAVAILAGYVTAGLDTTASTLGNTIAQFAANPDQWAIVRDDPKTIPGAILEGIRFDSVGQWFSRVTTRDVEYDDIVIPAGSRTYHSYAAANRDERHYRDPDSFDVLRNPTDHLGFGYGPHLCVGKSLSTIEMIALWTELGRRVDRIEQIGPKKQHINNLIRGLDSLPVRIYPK
# T1 sequence (A0A8A6W576 entry or part of it, further chain): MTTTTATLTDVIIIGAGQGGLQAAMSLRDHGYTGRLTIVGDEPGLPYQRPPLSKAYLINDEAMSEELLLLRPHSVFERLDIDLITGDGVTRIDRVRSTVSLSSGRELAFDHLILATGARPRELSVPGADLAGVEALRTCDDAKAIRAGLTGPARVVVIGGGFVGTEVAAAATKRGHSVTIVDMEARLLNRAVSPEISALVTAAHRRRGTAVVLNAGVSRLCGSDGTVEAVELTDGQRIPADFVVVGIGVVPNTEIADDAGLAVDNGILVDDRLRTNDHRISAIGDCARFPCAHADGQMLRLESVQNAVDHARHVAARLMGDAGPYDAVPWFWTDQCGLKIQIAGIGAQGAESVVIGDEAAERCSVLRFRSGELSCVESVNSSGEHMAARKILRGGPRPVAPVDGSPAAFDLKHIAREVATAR
# Assay: reconstituted enzyme assay, HPLC substrate loss; GC-MS of product CMEPA
# Type: biochemical
# Settings: 0.5 mM substrate; 1 mM NADH, 0.5 mM Fe2+, 1 mM MgCl2, 20 mM Tris-HCl pH 7.5, 30 °C; N-dealkoxymethylation
compound,measurement,value
CCc1cccc(C)c1N(COC(C)C)C(=O)CCl [propisochlor],"reconstituted enzyme assay, HPLC substrate loss; GC-MS of product CMEPA","EthABDB2 performed N-dealkoxymethylation to acetochlor, alachlor, propisochlor and butachlor, O-dealkylation to pretilachlor"
